# Assay results reported in ChEMBL document CHEMBL5608182, “Synthesis and evaluation of neuroactive steroids with novel pharmacophore at C-21 let identify a compound with advantageous PK profile and higher EC50 and Emax as PAM on GABAA receptor” (Eur J Med Chem, 2024).
# Tests used:
# [1] = target: Gamma-aminobutyric acid receptor subunit alpha-4/beta3/delta (Homo sapiens) (UniProt P28472+P48169+O14764); assay: (§1) Positive allosteric modulation of extrasynaptic alpha4beta3delta GABA-A receptor (unknown origin) transfected in CHO cells assessed as potentiation of GABA-induced peak current amplitude by measuring maximal efficacy at 0.01 to 10 uM at -80 mV holding potential preincubated for 30 secs followed by GABA stimulation for 2 secs by manual patch assay relative to control; format: cell-based; conditions: filed as positive allosteric modulator, dose 0.01-10 µM, time 32.0 sec
# [2] = target: Gamma-aminobutyric acid receptor subunit alpha-4/beta3/delta (Homo sapiens, UniProt O14764+P28472+P48169); assay: as §1, with “amplitude” for “amplitude by measuring maximal efficacy at 0.01 to 10 uM”, “assay” for “assay relative to control”; format: cell-based
# Chain of Gamma-aminobutyric acid receptor subunit alpha-4/beta3/delta (P28472 whole entry): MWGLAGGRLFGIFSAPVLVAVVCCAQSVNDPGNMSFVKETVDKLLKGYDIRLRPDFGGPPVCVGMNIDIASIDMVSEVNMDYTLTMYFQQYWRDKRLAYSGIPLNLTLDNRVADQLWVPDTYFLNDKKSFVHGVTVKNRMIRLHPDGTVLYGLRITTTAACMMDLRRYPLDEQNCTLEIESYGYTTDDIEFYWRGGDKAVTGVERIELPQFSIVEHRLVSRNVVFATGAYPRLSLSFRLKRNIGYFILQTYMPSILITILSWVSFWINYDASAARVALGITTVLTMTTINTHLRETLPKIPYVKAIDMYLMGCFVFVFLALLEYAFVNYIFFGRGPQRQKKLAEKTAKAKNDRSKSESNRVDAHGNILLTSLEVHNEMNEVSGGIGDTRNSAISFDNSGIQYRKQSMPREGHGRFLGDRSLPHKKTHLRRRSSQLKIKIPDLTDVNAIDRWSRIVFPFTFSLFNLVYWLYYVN
# Chain of Gamma-aminobutyric acid receptor subunit alpha-4/beta3/delta (P48169 whole entry): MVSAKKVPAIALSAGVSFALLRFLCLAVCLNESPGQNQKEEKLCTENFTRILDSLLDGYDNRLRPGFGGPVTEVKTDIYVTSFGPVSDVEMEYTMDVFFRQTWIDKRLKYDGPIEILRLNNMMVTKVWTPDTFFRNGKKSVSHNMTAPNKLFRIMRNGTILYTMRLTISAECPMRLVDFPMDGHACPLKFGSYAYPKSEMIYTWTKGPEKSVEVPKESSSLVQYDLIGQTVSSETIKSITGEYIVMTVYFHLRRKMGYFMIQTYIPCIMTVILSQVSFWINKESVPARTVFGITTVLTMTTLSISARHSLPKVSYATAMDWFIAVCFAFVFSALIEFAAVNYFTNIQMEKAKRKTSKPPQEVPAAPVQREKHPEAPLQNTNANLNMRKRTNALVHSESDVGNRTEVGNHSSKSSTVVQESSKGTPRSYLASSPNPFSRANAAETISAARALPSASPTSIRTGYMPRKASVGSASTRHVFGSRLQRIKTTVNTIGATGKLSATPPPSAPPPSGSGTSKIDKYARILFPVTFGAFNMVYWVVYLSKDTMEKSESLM
# Chain of Gamma-aminobutyric acid receptor subunit alpha-4/beta3/delta (O14764 whole entry): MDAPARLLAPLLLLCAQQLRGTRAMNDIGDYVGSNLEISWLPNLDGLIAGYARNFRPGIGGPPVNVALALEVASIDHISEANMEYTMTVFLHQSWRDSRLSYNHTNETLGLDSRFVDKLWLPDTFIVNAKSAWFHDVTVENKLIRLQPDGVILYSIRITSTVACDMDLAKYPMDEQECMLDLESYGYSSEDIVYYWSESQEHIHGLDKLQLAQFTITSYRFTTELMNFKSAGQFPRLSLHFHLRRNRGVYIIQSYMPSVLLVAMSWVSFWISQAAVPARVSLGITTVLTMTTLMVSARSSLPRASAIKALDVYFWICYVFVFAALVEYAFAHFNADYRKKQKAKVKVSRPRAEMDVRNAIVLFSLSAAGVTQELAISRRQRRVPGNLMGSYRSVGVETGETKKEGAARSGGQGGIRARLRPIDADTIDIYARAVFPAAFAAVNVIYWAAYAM
# [3] = Metabolic stability in human liver microsomes assessed as intrinsic clearance at 1 uM preincubated for 10 mins followed by NADPH addition by LC-MS analysis; format: ADME, Microsome; conditions: read-out: CLH
# [4] = target: T1, GABA-A receptor; alpha-1/beta-2/gamma-2 (Homo sapiens, UniProt P14867+P18507+P47870); assay: Positive allosteric modulation of synaptic alpha1beta2gamma2 GABA-A receptor (unknown origin) transfected in LTK cells assessed as potentiation of GABA-induced peak current amplitude at -80 mV holding potential preincubated for 30 secs followed by GABA stimulation for 2 secs by Q-patch assay; format: cell-based
# T1 sequence (P14867 whole entry): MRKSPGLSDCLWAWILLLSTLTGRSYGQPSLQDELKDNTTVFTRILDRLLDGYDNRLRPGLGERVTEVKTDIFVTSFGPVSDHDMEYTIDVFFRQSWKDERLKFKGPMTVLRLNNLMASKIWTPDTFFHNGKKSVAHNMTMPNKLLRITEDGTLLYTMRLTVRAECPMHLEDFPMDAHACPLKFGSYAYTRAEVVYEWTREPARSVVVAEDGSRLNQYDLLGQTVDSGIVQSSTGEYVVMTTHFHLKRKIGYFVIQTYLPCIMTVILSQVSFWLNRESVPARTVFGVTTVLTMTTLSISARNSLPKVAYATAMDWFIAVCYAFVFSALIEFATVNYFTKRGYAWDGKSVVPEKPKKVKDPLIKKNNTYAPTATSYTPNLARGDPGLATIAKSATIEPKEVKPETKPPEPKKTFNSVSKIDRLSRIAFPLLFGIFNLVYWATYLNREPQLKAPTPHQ
# T1 sequence (P47870 whole entry): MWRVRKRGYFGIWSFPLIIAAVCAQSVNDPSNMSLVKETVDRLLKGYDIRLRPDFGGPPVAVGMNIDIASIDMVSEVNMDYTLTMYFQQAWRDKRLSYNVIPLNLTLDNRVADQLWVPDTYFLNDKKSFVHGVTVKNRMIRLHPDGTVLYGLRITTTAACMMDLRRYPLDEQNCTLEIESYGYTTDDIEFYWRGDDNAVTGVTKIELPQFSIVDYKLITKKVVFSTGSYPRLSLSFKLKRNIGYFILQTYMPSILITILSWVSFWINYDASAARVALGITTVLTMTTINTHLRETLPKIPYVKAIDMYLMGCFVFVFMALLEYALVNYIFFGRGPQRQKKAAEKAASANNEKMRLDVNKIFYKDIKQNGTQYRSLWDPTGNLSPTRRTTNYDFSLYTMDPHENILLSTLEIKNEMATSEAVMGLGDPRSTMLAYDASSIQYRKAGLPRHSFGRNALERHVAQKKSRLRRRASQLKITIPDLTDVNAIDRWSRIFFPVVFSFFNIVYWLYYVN
# T1 sequence (P18507 whole entry): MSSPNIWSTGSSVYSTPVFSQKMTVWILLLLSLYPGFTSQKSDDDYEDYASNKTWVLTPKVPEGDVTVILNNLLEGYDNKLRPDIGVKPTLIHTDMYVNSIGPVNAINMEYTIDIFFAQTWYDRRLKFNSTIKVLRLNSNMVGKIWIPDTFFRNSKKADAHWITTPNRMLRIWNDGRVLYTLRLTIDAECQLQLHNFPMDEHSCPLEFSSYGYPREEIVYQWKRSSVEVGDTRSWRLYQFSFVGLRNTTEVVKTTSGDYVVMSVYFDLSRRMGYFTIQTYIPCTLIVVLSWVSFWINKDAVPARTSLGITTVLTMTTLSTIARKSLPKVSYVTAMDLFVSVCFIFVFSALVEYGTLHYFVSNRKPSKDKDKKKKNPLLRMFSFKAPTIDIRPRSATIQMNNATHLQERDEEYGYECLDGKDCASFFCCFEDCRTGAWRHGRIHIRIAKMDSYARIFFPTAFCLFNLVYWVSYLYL
# [5] = Drug concentration in Sprague-Dawley rat brain at 24.4 micromol/kg, IG measured after 0.5 hrs by LC-MS/MS analysis; format: ADME, tissue-based; conditions: in vivo, po, dose 24.4 µmol/kg
# [6] = target: GABA-A receptor; alpha-1/beta-2/gamma-2 (Homo sapiens) (UniProt P14867+P47870+P18507); assay: as §1, with “synaptic alpha1beta2gamma2” for “extrasynaptic alpha4beta3delta”, “LTK” for “CHO”, “Q-patch” for “manual patch”; format: cell-based; conditions: filed as positive allosteric modulator, dose 0.01-10 µM, time 32.0 sec
# [7] = Drug concentration in Sprague-Dawley rat brain at 24.4 micromol/kg, IG measured after 6 hrs by LC-MS/MS analysis; format: ADME, tissue-based; conditions: in vivo, po, dose 24.4 µmol/kg
# [8] = Metabolic stability in Sprague-Dawley rat liver microsomes assessed as compound remaining at 1 uM preincubated for 10 mins followed by NADPH addition by LC-MS analysis; format: ADME, Microsome; conditions: read-out: Stability
# [9] = Metabolic stability in human liver microsomes assessed as compound remaining at 1 uM preincubated for 10 mins followed by NADPH addition by LC-MS analysis; format: ADME, Microsome; conditions: read-out: Stability
# [10] = Metabolic stability in Sprague-Dawley rat liver microsomes assessed as intrinsic clearance at 1 uM preincubated for 10 mins followed by NADPH addition by LC-MS analysis; format: ADME, Microsome; conditions: read-out: CLH
# [11] = Drug concentration in Sprague-Dawley rat brain at 24.4 micromol/kg, IG measured after 2 hrs by LC-MS/MS analysis; format: ADME, tissue-based; conditions: in vivo, po, dose 24.4 µmol/kg
# [12] = target: GABA-A receptor; anion channel; assay: Inhibition of [35S]TBPS binding to GABA-A receptor in Sprague-Dawley rat brain cortical membrane incubated for 90 mins by liquid scintillation spectrometry; format: cell membranes, Cortex
SMILES,Emax [1] [%],EC50 [2] [µM],CLint scaled at 1 µM [3] [L/h/kg],EC50 [4] [µM],Ct [5] [nmol/kg],Emax [6] [%],Ct [7] [nmol/kg],remaining at 1 µM [8] [%],remaining at 1 µM [9] [%],CLint scaled at 1 µM [10] [L/h/kg],Ct [11] [nmol/kg],IC50 [12] [µM],Ct ([7]; BLD = below limit of detection),Ct ([11]; BLD = below limit of detection)
C[C@@]1(O)CC[C@H]2[C@H](CC[C@@H]3[C@@H]2CC[C@]2(C)[C@@H](C(=O)Cn4cnn(-c5ccnc(F)c5)c4=O)CC[C@@H]32)C1,913,0.056,1.38,0.109,708,775,764,32.2,48.1,4.14,1188,,,
C[C@@]1(O)CC[C@H]2[C@H](CC[C@@H]3[C@@H]2CC[C@]2(C)[C@@H](C(=O)Cn4cnn(-c5cccc(F)c5)c4=O)CC[C@@H]32)C1,440,0.01,0.234,0.056,1708,566,792,44.5,89,2.64,1530,0.0012,,
C[C@@]1(O)CC[C@H]2[C@H](CC[C@@H]3[C@@H]2CC[C@]2(C)[C@@H](C(=O)Cn4nnn(-c5cccc(F)c5)c4=O)CC[C@@H]32)C1,602,0.023,0.66,0.037,948,1120,,15.6,70,6.3,,0.001,Bld,Bld
